Patent US10780069B2, “Use of GC-1 in transplant related population” (University of Pittsburgh—Of the Commonwealth System of …, priority 2017, dated 2020)
Entries after “also recorded” stand apart in the source; their conditions may differ.

What was measured:
hepatocytes [1] = test: Daily IP injections of GC-1 in wild type C57BL/6 mice: hepatocyte proliferation, β-catenin activation, cyclin-D1; assay type: in vivo; conditions: vs DMSO control
Protocol: All studies on mice were performed in strict accordance with Guidelines. Eight-week old male C57BL/6 male mice (Jackson/Charles River) were maintained on a standard laboratory basal diet (Test Diet) (n=4), or fed a T3-supplemented diet (4 mg/Kg of diet, Sigma Chemicals, St. Louis Mo.) (n=4). GC-1 was administered to the eight week-old male C57BL/6 male mice either via GC-1-supplemented diet (5 mg/Kg of diet, Medchem Express) for 8 days (n=4) or via daily intraperitoneal injections (IP) of GC-1 dissolved in DMSO (0.3 mg/kg/dose) for 8 days (n=7). As a control group for injections, DMSO alone was injected daily intraperitoneal (IP) for 8 days (n=5). Mice were sacrificed 24 hours after the last injection.
To label dividing hepatocytes, BrdU (5-bromodeoxyuridine) dissolved in drinking water (1 mg/ml) was given to all animals throughout the experiment period. The animals were given food and water ad libitum with a 12-hour light/dark daily cycle.
Four micron liver sections were analyzed by immunohistochemistry for β-Catenin (BD Biosciences, San Jose, Calif.), Cyclin-D1 (Thermo-Scientific, Fremont, Calif.) and PCNA (Santa Cruz Biotechnology, Dallas, Tex.). Briefly, formalin-fixed sections were deparaffinized in graded xylene and alcohol. Endogenous peroxidase was inactivated using 3% hydrogen peroxide (Sigma). For β-Catenin, Cyclin-D1 staining, slides were microwaved in Citrate buffer followed by blocking with Superblock for 10 minutes. Sections were then incubated with secondary anti-mouse (for β-catenin) or anti-rabbit (for Cyclin-D1) horseradish peroxidase-conjugated antibody for 30 minutes.
For PCNA, slides were microwaved in zinc sulfate for 12 minutes, followed by blocking with Superblock for 20 minutes. Sections were incubated with PCNA antibody (Santa Cruz) diluted 1:4,000 in phosphate buffered saline (PBS) for 60 minutes. Slides then incubated with horse anti-mouse secondary antibody (1:700 dilution) for 30 minutes. ABC was applied for 30 minutes. DAB kit was then applied. Slides were then dehydrated, coverslips placed, and allowed to dry.
Bromodeoxyuridine (BrdU) was stained with mouse antibody (Becton Dickinson) as previously described (Fanti et al. (2014) Hepatology 59, 2309-2320). Briefly, tissue sections were deparaffinized, exposed to 0.3% hydrogen peroxide in deionized water for 10 minutes to block endogenous peroxidase, treated with 2N HCl, incubated with trypsin 0.1% for 20 minutes and then with normal goat serum for 20 minutes at room temperature. Sections were then incubated overnight in cold room with anti-BrdU monoclonal antibody, followed by biotinylated goat anti-mouse IgG. DAB kit was then applied, and sections were counterstained with hematoxylin. A small segment of intestine was included from each mouse as a positive control for the staining. For quantification of BrdU staining, at least 10 high power fields (400× or 600×) fields each from at least three biological replicates were counted as indicated in the figures. Statistical analysis was performed as described below.
Protein extraction from frozen liver tissue and western blot analysis were performed as previously described (Fanti et al., (2014) Hepatology 59, 2309-2320). For protein extraction, a small amount of frozen liver tissue was obtained (over dry ice) and was homogenized using RIPA buffer with protease and phosphatase inhibitor cocktail (Sigma, St. Louis, Mo.). Samples were transferred to a 1.5 ml tube on ice, and spun in cold room centrifuge at 14,000 RPM for 5 minutes. […]

hepatocytes [2] = test: T3 or GC-1 in LRP5-6 LKO mice and littermate controls; assay type: in vivo
Protocol: Eight to 10 week-old LRP5-6-LKO were obtained from breeding homozygous LRP5-6 double floxed mice with albumin-cre transgenic mice as described previously (Yang et al. (2014) Hepatology 60, 964-976). LRP5-6-LKO or sex matched littermate controls were given either T3-supplemented diet (n=4), basal diet (n=3), IP GC-1 (n=3) or IP DMSO (n=3). Mice were sacrificed at 24 hours after the last IP injection.
To label dividing hepatocytes, BrdU (5-bromodeoxyuridine) dissolved in drinking water (1 mg/ml) was given to all animals throughout the experiment period. The animals were given food and water ad libitum with a 12-hour light/dark daily cycle. […]
Protein extraction from frozen liver tissue and western blot analysis were performed as previously described (Fanti et al., (2014) Hepatology 59, 2309-2320). For protein extraction, a small amount of frozen liver tissue was obtained (over dry ice) and was homogenized using RIPA buffer with protease and phosphatase inhibitor cocktail (Sigma, St. Louis, Mo.). Samples were transferred to a 1.5 ml tube on ice, and spun in cold room centrifuge at 14,000 RPM for 5 minutes. Pellet was then discarded and sample was aliquoted and stored at −80 C for use. Fifty micrograms of the proteins were resolved by sodium dodecyl sulfate-polyacrylamide gel electrophoresis analysis, and transferred to immobilon-polyvinylidene difluoride membranes.
The primary antibodies used were against β-catenin (BD Biosciences); pSer675-β-catenin, pSer552-β-catenin, Active-β-catenin (Cell-Signaling), Cyclin-D1 (Thermo-Scientific), and β-Actin (Sigma). Dilutions of primary antibody were done according to manufacturer recommendations (1:1000 for all except Cyclin-D1 which was 1:200). Horseradish peroxidase-conjugated secondary antibodies used were goat anti-mouse (1:20,000) and goat anti-rabbit (1:10,000) (Millipore). The proteins were detected by Super-Signal West Pico Chemiluminescense Substrate (Thermo Scientific, Rockford Ill.) and visualized by autoradiography. […]

numbers of cyclin-D1-positive hepatocytes (immunohistochemistry) (hepatocytes [2]; LRP5-6 LKO vs controls): notably decreased
Structure (SMILES): Cc1cc(OCC(=O)O)cc(C)c1Cc1ccc(O)c(C(C)C)c1 [GC-1, Sobetirome]
PCNA-positive hepatocytes and BrdU incorporation (hepatocyte proliferation) (hepatocytes [1]; GC-1 0.3 mg/Kg/dose daily IP in DMSO, 8 days, 0.3 mg/kg): increased number of PCNA-positive hepatocytes as well as BrdU incorporation; also recorded: increased proliferation
P-Ser675-β-catenin level, Western blot of whole liver lysates (hepatocytes [1]; GC-1 0.3 mg/Kg/dose daily IP): increased
cyclin-D1 immunohistochemistry (hepatocytes [1]; GC-1 0.3 mg/Kg/dose daily IP): many positive hepatocytes
cyclin-D1 level, Western blot of whole liver lysates (hepatocytes [1]; GC-1 0.3 mg/Kg/dose daily IP): increased
total β-catenin level, Western blot (hepatocytes [1]; GC-1 0.3 mg/Kg/dose daily IP): did not show much difference
pSer675-β-catenin levels, Western blot (hepatocytes [2]; LRP5-6-LKO and littermate controls): comparable or even greater levels
pSer552-β-catenin levels, Western blot (hepatocytes [2]; LRP5-6 LKO): modest increase
active β-catenin levels (hepatocytes [2]; LRP5-6 LKO after T3 or GC-1 feeding vs basal diet): no notable differences
cyclin-D1 protein and mRNA expression (hepatocytes [2]; LRP5-6 LKO vs controls): decreased
total β-catenin levels (hepatocytes [2]; LRP5-6 LKO vs controls): comparable levels
number of BrdU-labeled hepatocyte nuclei (hepatocytes [2]; LRP5-6 LKO vs controls, T3 diet 4 mg/Kg of diet or GC-1 0.3 mg/Kg/dose IP 8 days): notable decrease
active β-catenin levels in liver lysates (hepatocytes [2]; control mice fed T3 or GC-1 diet for 8 days vs basal diet): dramatic increase
